Data published in article PMC4388264, “ANS complex of St John’s wort PR-10 protein with 28 copies in the asymmetric unit: a fiendish combination of pseudosymmetry with tetartohedral twinning” (Acta Crystallographica Section D: Biological Crystallography, 2015).

Target: T1, Hyp-1 (Hypericum perforatum, UniProt Q8H1L1)
T1 construct: gene HYP1.1; recombinant Hyp-1 with an N-terminal hexapeptide extension (GIDPFW–) as a cloning artifact
T1 sequence (Q8H1L1 1-159): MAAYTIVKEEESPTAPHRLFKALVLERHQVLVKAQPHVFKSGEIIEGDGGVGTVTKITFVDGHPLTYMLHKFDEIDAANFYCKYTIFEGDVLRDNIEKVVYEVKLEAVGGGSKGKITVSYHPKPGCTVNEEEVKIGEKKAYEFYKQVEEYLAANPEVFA
Assay: crystal structure at […] Å and ITC (N = […]); fluorometric titration gave Kd […]
Assay type: binding

## O=S(=O)(O)c1cccc2cccc(Nc3ccccc3)c12 [ANS, 8-anilino-1-naphthalene sulfonate]
  Kd: 108 ± 3 µM
